{"source": "patent US8920788B2", "about": "“High-molecular weight conjugate of physiologically active substances” (priority 2008, dated 2014)", "key": {"[1]": {"tested_on": "Mouse colon cancer, Colon 26", "assay": "Antitumor activity, subcutaneously transplanted Colon 26 in mice", "format": "in vivo, female CDF1 mice", "settings": "dose 15 mg/kg, once into tail vein", "excerpt": "Mouse colon cancer, Colon 26, maintained by serial subcutaneous subculture in mice, was minced into about 2-mm cubic fragments, and the fragments were subcutaneously transplanted on the dorsal part of female CDF1 mice with a trocar. Eight days after the tumor transplantation, the high-molecular weight conjugate according to the present invention (Compound 2 and Compound 4) or a control drug (Comparative Compound 1 and doxorubicin hydrochloride) was each administered once into the mouse tail vein in a way such that each mouse received the same dose per body weight in terms of doxorubicin. Each compound was dissolved in a 5% liquid glucose for injection and used. After the administration, the major axis (L mm) and the minor axis (W mm) of the tumor were measured using a caliper, and the tumor volume was calculated by the formula (L×W^2)/2."}, "[2]": {"assay": "Lethal dose of the control drug", "format": "in vivo", "settings": "control drug of the antitumor test", "description": "The lethal dose of doxorubicin used as the control drug was 30 mg/kg, and therefore doxorubicin was administered at a dose of 15 mg/kg to perform the antitumor test."}}, "note": "Counter-ions that a name gives are not always drawn."}
{"smiles": "COc1cccc2c1C(=O)c1c(O)c3c(c(O)c1C2=O)C[C@@](O)(C(=O)CO)C[C@@H]3O[C@H]1C[C@H](N)[C@H](O)[C@H](C)O1", "note": "[Doxorubicin, doxorubicin hydrochloride]", "values": [{"measurement": "relative tumor volume based on the tumor volume on the day of administration", "setting": "[1]; day 0 after administration", "value": 1.00}, {"measurement": "relative tumor volume based on the tumor volume on the day of administration", "setting": "[1]; day 3 after administration", "value": 1.79}, {"measurement": "relative tumor volume based on the tumor volume on the day of administration", "setting": "[1]; day 7 after administration", "value": 3.89}, {"measurement": "relative tumor volume based on the tumor volume on the day of administration", "setting": "[1]; day 10 after administration", "value": 5.27}, {"measurement": "relative tumor volume based on the tumor volume on the day of administration", "setting": "[1]; day 14 after administration", "value": 12.17}, {"measurement": "lethal dose", "setting": "[2]", "value": 30, "unit": "mg/kg"}]}
